Source: patent US4875922A, “Pyrimidine derivatives” (Imperial Chemical Industries PLC, priority 1986, dated 1989)

Tests used:
Barley = assay: Whole plant screen for plant growth regulator activity, barley (BR); type: in vivo, Barley (Atem); conditions: BR, 4000 ppm (4 kg/ha), visual score after 2-6 weeks; for T = Tillering or side shooting: * = decrease in tillering
Procedure: (§1) Compounds 1 to 3 in Table 1 were tested for plant growth regulator activity against five species for various growth effects relevant to plant growth regulation.
(§2) The plant species used in this screen are presented in Table II with the leaf stage at which they were sprayed. Each chemical was applied at 4000 ppm (4 kg/ha in a 1000 l/ha field volume) using a tracksprayer and a SS8004E (Teejet) nozzle.
(§3) After spray the plants were grown in a glasshouse with 25° C. day/22° C. night temperatures and supplementary lighting was supplied when necessary (from mercury vapour lamps), to provide a 16 hour photoperiod. The exception to this were the temperate cereals, wheat and barley which were grown in 16° C. day/13° C. night temperatures.
(§4) After 2-6 weeks in the glasshouse, depending on the time of year, the plants were visually assessed for morphological characteristics. Formulation blanks were used as controls to assess the plants.
(§5) Additional compounds in Table I were tested for plant growth regulator activity using the method of Example 60 except that Tomato was included in the test as an additional species. Tomato, Ailsa Craig, was grown in a single 3 inch pot in peat and treated at the 2 to 21/2 leaves growth stage. The results were presented in Table IV in which Tomato is indicated by the code TO and the Key is otherwise as for Table III.

Wheat = assay: Whole plant screen for plant growth regulator activity, wheat (WW); type: in vivo, Wheat (Timmo); conditions: WW, 4000 ppm (4 kg/ha), visual score after 2-6 weeks; for T = Tillering or side shooting: * = decrease in tillering
Procedure: as §1, §2, §3, §4, §5

Spring Barley = assay: Intermediate Retardant Test, spring barley; type: in vivo, Spring Barley (Atem/kym); conditions: Hordeum vulgare, 672 h, overall spray, approximately 28 days, Table VII, read-out: Percentage Reduction in Height of Spring Barley (Compared to formulation blank)
Text: (§6) Three species are involved in this test RICE, SPRING-BARLEY and APPLES. The variety and growth stages at spray are outlined in Table V. Compounds were applied at 500 ppm and 2000 ppm respectively (0.5 kg and 2 kg/ha^-1 at a field volume of 1000 l/ha^-1) as an overall spray except in the case of certain tests on APPLES. This gives a foliar and root component in the test, i.e., this test will detect the activity of both root and foliar acting compounds. The intermediate retardant test on APPLES of which the results are given in Table IX was different, in that a foliar (only) spray at 2000 ppm was compared with a root drench, also at 2000 ppm. The rice was grown in 4" `paddy` pots, i.e., the roots and bottom of the stems are immersed in water under conditions corresponding to those in paddy fields. Spring barley and apples were grown in 4" pots. The plants were assessed for height to top-most ligule at approximately 28 days after treatment for spring barley and rice and for height to apex at approximately 28 days after the treatment for apples. In each case the result for the 500 ppm and 2000 ppm test for each compound is compared to the height of the formulation blank in that test, presented as a percentage reduction in height compared to the formulation blank.
(§7) The prior art compound was compared with compounds of the present invention in side-by-side comparisons using the Intermediate Retardant Test described in Example 62, and the results are given in Tables X to XII where `A` is the prior art compound, 2-methyl-1-isopropyl-1-(pyrimidin-5-yl)-propan-1-ol).

Tomato = assay: Whole plant screen for plant growth regulator activity, tomato (TO); type: in vivo, Tomato (Ailsa Craig); conditions: 4000 ppm (4 kg/ha), visual score after 2-6 weeks
Procedure: as §2, §3, §4, §5
An astrisk (*) after a score under "T" (tillering) indicated a decrease in tillering.

Rice [1] = assay: Whole plant screen for plant growth regulator activity, rice (RC); type: in vivo, Rice (Ishikari); conditions: 4000 ppm (4 kg/ha), visual score after 2-6 weeks; for T = Tillering or side shooting: * = decrease in tillering
Procedure: as §1, §2, §3, §4, §5

Apples = assay: Intermediate Retardant Test, apples, foliar spray compared with root drench; type: in vivo, Apples (Red Delicious); conditions: 672 h, approximately 28 days, Table IX, read-out: Percentage Reduction in Height of Apples (Compared to formulation blank); for percent reduction in plant height at 2000 ppm: 2000 ppm (Foliar); for percent reduction in plant height at 2000 µg/mL: soil, 2000 pmm (Root), root drench
Text: as §6, §7

Rice [2] = assay: Intermediate Retardant Test, rice; type: in vivo, Rice (Ishikari); conditions: Oryza sativa, 672 h, overall spray, approximately 28 days, Table VI, read-out: Percentage Reduction in Height of Rice (Compared to formulation blank)
Text: as §6, §7

Apple = assay: Whole plant screen for plant growth regulator activity, apple (AP); type: in vivo, Apple (Red Delicious); conditions: 4000 ppm (4 kg/ha), visual score after 2-6 weeks
Procedure: as §1, §2, §3, §4, §5

| SMILES | G = Greening effect (Barley) | I = Interligular or internodal length reduction (Barley) | R = Retardation (Barley) | T = Tillering or side shooting (Barley) | I = Interligular or internodal length reduction (Wheat) | R = Retardation (Wheat) | T = Tillering or side shooting (Wheat) | percent reduction in plant height at 500 ppm (Spring Barley) | percent reduction in plant height at 2000 ppm (Spring Barley) | I = Interligular or internodal length reduction (Tomato) | R = Retardation (Tomato) | G = Greening effect (Rice [1]) | I = Interligular or internodal length reduction (Rice [1]) | R = Retardation (Rice [1]) | percent reduction in plant height at 2000 ppm (Apples) | percent reduction in plant height at 2000 µg/mL (Apples) | Percent reduction in rice height vs formulation blank at 500 ppm (Rice [2]) | Percent reduction in rice height vs formulation blank at 2000 ppm (Rice [2]) | I = Interligular or internodal length reduction (Apple) | R = Retardation (Apple) | further results |
| --- | --- | --- | --- | --- | --- | --- | --- | --- | --- | --- | --- | --- | --- | --- | --- | --- | --- | --- | --- | --- | --- |
| CC(C)CCC(O)(c1cncnc1)C(C)C (stereo not drawn) [Compound 13, 2-Methyl-1-(3-methylbutyl)-1-(pyrimidin-5-yl)-propan-1-ol] | 2 (31-60%) | 3 (61-100%) | 2 (31-60%) | 2 (31-60%) | 3 (61-100%) | 2 (31-60%) | 1 (10-30%) | 2% | 11% | 2 (31-60%) | 2 (31-60%) | 1 (10-30%) | 2 (31-60%) | 2 (31-60%) | 7% | 70% | 8% | 9% | 3 (61-100%) | 3 (61-100%) | G = Greening effect (Apple): 2 (31-60%) |
| CC(C)C#CC(O)(c1cncnc1)C(C)C (stereo not drawn) [Compound 9, 2-Methyl-1-(3-methylbut-1-yne)-1-(pyrimidin-5-yl)propan-1-ol] | 2 (31-60%) | 3 (61-100%) | 2 (31-60%) | 2 (31-60%) | 3 (61-100%) | 2 (31-60%) | 2 (31-60%) | 20% | 49% | 1 (10-30%) | 1 (10-30%) | 1 (10-30%) | 1 (10-30%) | 1 (10-30%) | 0% | 63% | 11% | 18% | 3 (61-100%) | 3 (61-100%) | G = Greening effect (Wheat): 2 (31-60%); G = Greening effect (Tomato): 1 (10-30%); A = Apical damage (Rice [1]): 1 (10-30%); G = Greening effect (Apple): 1 (10-30%) |
| CC(C)C(O)(C#CC(C)(C)C)c1cncnc1 (stereo not drawn) [Compound 10, 2-Methyl-1-(3,3-dimethylbut-1-yne)-1-(pyrmidin-5-yl)propan-1-ol] | 2 (31-60%) | 3 (61-100%) | 2 (31-60%) | 2 (31-60%) | 3 (61-100%) | 2 (31-60%) | 1 (10-30%) | 29% | 62% |  |  | 1 (10-30%) | 2 (31-60%) | 2 (31-60%) | 4% | 69% | 9% | 20% | 3 (61-100%) | 2 (31-60%) | G = Greening effect (Wheat): 2 (31-60%) |
| CCC(C)C#CC(O)(c1cncnc1)C(C)C (stereo not drawn) [Compound 5, 2-Methyl-1-(3-methylpent-1-yne)-1-(pyrimidin-5-yl)-propan-1-ol] | 1 (10-30%) | 3 (61-100%) | 3 (61-100%) | 3 (61-100%) | 3 (61-100%) | 3 (61-100%) | 1 (10-30%) | 38% | 72% | 2 (31-60%) | 2 (31-60%) |  | 2 (31-60%) | 2 (31-60%) | 25.6% | 76.1% | 39% | 68% |  |  | G = Greening effect (Wheat): 2 (31-60%); G = Greening effect (Tomato): 2 (31-60%); T = Tillering or side shooting (Rice [1]): 1 (10-30%) |
| CC(C)C#CC(O)(c1cncnc1)C(C)(C)C (stereo not drawn) [Compound 18, 2,2-Dimethyl-1-(3-methylbut-1-yne)-1-(pyrimdin-5-yl)-propan-1-ol] | 2 (31-60%) | 3 (61-100%) | 2 (31-60%) | 3 (61-100%) | 3 (61-100%) | 2 (31-60%) | 2 (31-60%) | 17% | 55% | 3 (61-100%) | 3 (61-100%) | 1 (10-30%) | 3 (61-100%) | 3 (61-100%) | 0% | 69% | 13% | 15% | 3 (61-100%) | 3 (61-100%) | G = Greening effect (Apple): 2 (31-60%) |
| CC(C)CCCC(O)(c1cncnc1)C(C)(C)C (stereo not drawn) [Compound 17, 2,2-Dimethyl-1-(4-methylpentyl)-1-(pyrimidin-5-yl)-propan-1-ol] | 2 (31-60%) | 3 (61-100%) | 2 (31-60%) | 2 (31-60%) | 3 (61-100%) | 2 (31-60%) | 2 (31-60%) | 2% | 28% | 1 (10-30%) | 1 (10-30%) | 1 (10-30%) | 2 (31-60%) | 2 (31-60%) | 17% | 66% | 7% | 10% | 3 (61-100%) | 3 (61-100%) | G = Greening effect (Wheat): 2 (31-60%); G = Greening effect (Tomato): 1 (10-30%); T = Tillering or side shooting (Rice [1]): 1 (10-30%); G = Greening effect (Apple): 1 (10-30%) |
